Data as given in patent publication US12202832B2, “Heterocyclic compounds having a calcium-sensing receptor antagonistic activity” (TAKEDA PHARMACEUTICAL COMPANY LIMITED, priority 2017, dated 2025).

Key:
[1] = system: CSQ-Tg mice; test: Effect on survival rate of heart failure animal model; assay type: in vivo; conditions: oral QD 68 days, control: candesartan cilexetil mono-administration
Procedure: FIG. 1 is a graph showing a result of Test Example 5 “Effect of Compound of Example 1 on Survival Rate of Heart Failure Animal Model”, that is, survival rates of each of the mono-administration group of candesartan cilexetil, the co-administration group of candesartan cilexetil and the compound of Example 1 at 10 mg/kg bodyweight/day, and the co-administration group of candesartan cilexetil and the compound of Example 1 at 30 mg/kg bodyweight/day (log-rank test, the co-administration group of candesartan cilexetil and the compound of Example 1 at 10 mg/kg bodyweight/day (p<0.05), the co-administration group of candesartan cilexetil and the compound of Example 1 at 30 mg/kg bodyweight/day (p<0.01)).
In this Test Example, effect of Example 1 on survival rate was examined using heart failure animal models. The mice reported in Larry R. Jones et al., J. Clin. Invest. 101: 1385-1393, 1998 were obtained from the University of Pennsylvania and bred in-house, which were cardiac-specific transgenic mice of Calsequestrin (CSQ) (CSQ-Tg mice) as the heart failure animal models. In the study, female mice were used, and dosing was started from the age of 5 weeks. The animals were fed with chow (CE-2, CLEA Japan, Inc.) and tap water under the condition of room temperature of 20 to 26° C., humidity of 40 to 70%, and lighting time of 12 hours/day (7:00 to 19:00). […]

[2] = system: CSQ-Tg mice; test: Heart weight lowering effect in heart failure animal model; assay type: in vivo; conditions: mean ± standard deviation; for Heart weight / Right ventricle weight: ** p < 0.025 Williams' test
Procedure: In this Test Example, the heart weight lowering effect of the compound of Example 1 (referred to herein as “Example 1”) was evaluated using CSQ-Tg mice as animal model for heart failure.
The Example 1 was suspended in 0.5% methylcellulose aqueous solution (hereinafter, in Test Examples, sometimes referred to as “vehicle”) (10 mL/kg). The obtained suspension was orally administered to 5-week old female CSQ-Tg mice developing heart failure at a dose of 30 mg/kg bodyweight/day (n=7) or 90 mg/kg bodyweight/day (n=9) once daily (QD) for 21 days. For a negative control (vehicle administration group), 0.5% methylcellulose aqueous solution (n=7) was administered. Then, weights of the hearts were measured. The measurement of the weights was carried out by fractionating each of the hearts into four: left ventricle, right ventricle, left atrium, and right atrium. The sum of the weights of the four fractions was defined as the heart weight.

[3] = target: T1, CYP3A4 (Homo sapiens, UniProt P08684); test: CYP3A4 TDI in human liver microsomes (testosterone 6β-hydroxylation); assay type: in vitro ADME; conditions: 30 μM test compound, 60 min vs 0 min preincubation, solvent DMSO/acetonitrile (1:4, v/v)
T1 construct: Human liver microsomes purchased from XenoTech, LLC (Lenexa, KS) was used; tissue XenoTech, LLC (Lenexa, KS); host or cells: human liver microsomes
T1 sequence (P08684 whole entry): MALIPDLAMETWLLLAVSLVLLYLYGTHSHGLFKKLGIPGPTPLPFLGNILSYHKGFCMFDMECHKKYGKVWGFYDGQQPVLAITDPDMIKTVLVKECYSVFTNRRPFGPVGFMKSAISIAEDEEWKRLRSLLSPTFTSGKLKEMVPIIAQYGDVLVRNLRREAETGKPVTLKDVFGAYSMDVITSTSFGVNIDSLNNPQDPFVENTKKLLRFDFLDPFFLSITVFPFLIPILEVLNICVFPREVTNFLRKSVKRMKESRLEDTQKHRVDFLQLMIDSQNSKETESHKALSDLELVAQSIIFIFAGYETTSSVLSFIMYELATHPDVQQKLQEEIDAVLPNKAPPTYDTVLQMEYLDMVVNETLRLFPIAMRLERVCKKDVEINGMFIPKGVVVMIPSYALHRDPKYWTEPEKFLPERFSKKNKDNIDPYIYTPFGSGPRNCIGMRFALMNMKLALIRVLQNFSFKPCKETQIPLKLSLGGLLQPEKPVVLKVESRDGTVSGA
Procedure: Human liver microsomes purchased from XenoTech, LLC (Lenexa, KS) was used. Test compounds were dissolved in acetonitrile or DMSO/acetonitrile (1:4, v/v). To a human liver microsomes solution adjusted with phosphate buffer (pH 7.4), the test compound solution was added to obtain a human liver microsomes reaction solution having the test compound concentration of 30 μM. To the human liver microsome reaction solution, NADPH production system was added, and the mixture was preincubated at 37° C. for 0 minutes or 60 minutes. After the preincubation, probe substrate testosterone was added, and testosterone metabolite 6β-hydroxytestosterone was analyzed by LC/MS/MS to evaluate CYP3A4 enzymatic activity.
The enzyme activity (% of control) at each preincubation point was calculated from the following equation: % of control={(activity of test compound addition group)/(activity of test compound non-addition group)}×100.
The remaining activity (% remaining) after 60 minutes of preincubation was calculated from the following equation: Remaining activity (%)={activity after 60 minutes (% of control60 min)}/{activity after 0 minutes (% of control0 min)}×100.

[4] = system: CYP3A; test: CYP induction (CYP3A activity in cryopreserved hepatocytes, P450-Glo CYP3A4 assay); assay type: in vitro ADME; conditions: % of positive control; inducibility by 10 μmol/L rifampicin defined as 100%; hepatocytes treated 3 days
Procedure: Cryopreserved hepatocytes were thawed in a culture medium (In VitroGRO™ CP Medium, Celsis In Vitro Technologies, U.S.A.), and the resultant was added to BioCoat™ Matrigel®™ Matrix Thin-Layer 96 well (Becton, Dickinson and Company, U.S.A.) at a concentration of 40,000 cells/well. After culturing for 24 hours, the culture medium was removed, and replaced with an incubation medium (In VitroGRO™, HI Medium with Torpedo Antibiotic Mix, Celsis In Vitro Technologies, U.S.A.). Cells were cultured for an additional 3 days. The medium was removed on day 4, and the remained cells were treated in the induction medium containing a test compound for 3 days in the presence or absence of 10 μmol/L rifampicin. The induction medium was replaced every day. The test compound addition wells in the presence of 10 μmol/L rifampicin were used to evaluate the inhibitory effect of the test compound on the inducibility of the CYP3A activity by rifampicin. The CYP3A activity was evaluated by measuring luciferin generating amount after the addition of 2 μmol/L luciferin-IPA using IPA P450-Glo™ CYP3A4 assay systems (Promega Corporation, U.S.A.). All cultures were carried out under a humidified environment at 37° C., 5% CO2. The inducibility by rifampicin was defines as 100%, and the inducibility of the test compound (% of positive control) was calculated from the following equation: [(luciferin fluorescence intensity in the absence of rifampicin and the presence of test compound)−(luciferin fluorescence intensity in the absence of rifampicin and test compound)/(luciferin fluorescence intensity in the presence of rifampicin and the absence of test compound)−(Luciferin fluorescence intensity in the absence of rifampicin and test compound)]×100.

[5] = 30 mg/kg bodyweight/day oral QD 21 days
[6] = 90 mg/kg bodyweight/day oral QD 21 days

SMILES: CCc1ccc([C@@](CC)(NC(=O)c2c(C)nn3c2N[C@@H](c2ccccc2)CC3(C)C)C(=O)N[C@@H](C)C(N)=O)cc1 [Example 1, (5R)-N-((2R)-1-(((2S)-1-Amino-1-oxopropan-2-yl)amino)-2-(4-ethylphenyl)-1-oxobutan-2-yl)-2,7,7-trimethyl-5-phenyl-4,5,6,7-tetrahydropyrazolo[1,5-a]pyrimidine-3-carboxamide]
- Survival rate, log-rank test p ([1]; 10 mg/kg bodyweight/day co-administered with candesartan cilexetil (1 mg/kg bodyweight/day)): < 0.05
- Survival rate, log-rank test p ([1]; 30 mg/kg bodyweight/day co-administered with candesartan cilexetil (1 mg/kg bodyweight/day)): < 0.01
- Left atrium weight [2, 5]: 8.1 ± 3.8 mg
- Left ventricle weight [2, 5]: 147.4 ± 12.0 mg
- Right atrium weight [2, 5]: 5.5 ± 2.6 mg
- Heart weight [2, 5]: 202.8 ± 14.1** mg
- Right ventricle weight [2, 5]: 41.8 ± 6.0** mg
- Left atrium weight [2, 6]: 9.1 ± 5.1 mg
- Left ventricle weight [2, 6]: 147.0 ± 8.6 mg
- Right atrium weight [2, 6]: 5.1 ± 2.2 mg
- Heart weight [2, 6]: 202.5 ± 19.1** mg
- Right ventricle weight [2, 6]: 41.3 ± 7.6** mg
- Remaining Activity [3]: 96.2%
- Inducibility [4]: 15.3%
